Measurements as given in PMC5298231, “The Malaria Parasite's Lactate Transporter PfFNT Is the Target of Antiplasmodial Compounds Identified in Whole Cell Phenotypic Screens” (PLoS Pathogens, 2017).
Like-named read-outs stand apart in the source and are kept apart here. Peptide text beside a SMILES is read from it.

Tested on: erythrocytes infected with 3D7 trophozoites
Type: cell-based, Plasmodium falciparum

Row | Structure (SMILES) | Ratio of metabolite abundance, Exp1_1hr (sheet Ratio, Exp1, 1hr) | Ratio of metabolite abundance, Exp1_3hr (sheet Ratio, Exp1, 3hr) | Ratio of metabolite abundance, Exp1_6hr (sheet Ratio, Exp1, 6hr) | Ratio of metabolite abundance, Exp2_1hr (sheet Ratio, Exp2, 1hr) | Ratio of metabolite abundance, Exp2_3hr (sheet Ratio, Exp2, 3hr) | Ratio of metabolite abundance, Exp2_6hr (sheet Ratio, Exp2, 6hr) | Ratio of metabolite abundance, Exp3_1hr (sheet Ratio, Exp3, 1hr) | Ratio of metabolite abundance, Exp3_3hr (sheet Ratio, Exp3, 3hr) | Ratio of metabolite abundance, Exp3_6hr (sheet Ratio, Exp3, 6hr) | also measured
1 | Nc1ncnc2c1ncn2[C@H]1C[C@H](O)[C@@H](COP(=O)(O)OP(=O)(O)O)O1 [dADP] | 0.4339 | 0.1672 | 0.2747 | 1.0009 | 0.9609 | 1.167 | 1.173 | 0.5208 | 1.268 | 
2 | O=C[C@H](O)[C@H](O)[C@H](O)COP(=O)(O)O [Ribose-5-phosphate] | 2.775 | 3.2124 | 2.288 | 1.429 | 1.2203 | 1.178 | 1.678 | 1.594 | 1.155 | 
3 | O=C[C@H](O)[C@H](O)COP(=O)(O)O [Erythrose 4-phosphate] | 0.8874 | 1.021 | 0.7492 | 0.7497 | 0.9809 | 0.8462 | 0.7238 | 0.584 | 0.3651 | 
4 | N[C@@H](CCC(=O)O)C(=O)N[C@@H](CO)C(=O)N[C@@H](Cc1ccccc1)C(=O)NCC(=O)O [ESFG] (H-ESFG-OH) | 1.207 | 0.8233 | 1.441 | 1.518 | 1.053 | 1.4585 | 1.266 | 0.9822 | 1.358 | 
5 | CC(C)[C@H](NC(=O)[C@@H]1CCCN1)C(=O)N[C@@H](CC(N)=O)C(=O)N[C@@H](Cc1ccccc1)C(=O)O [PVNF] (H-PVNF-OH) | 0.6556 | 0.3908 | 1.343 | 0.8248 | 0.5795 | 1.295 | 0.9151 | 0.7449 | 2.085 | 
6 | O=C(O)[C@@H]1CC(O)CN1 (stereo partly drawn) [Hydroxy-L-proline] | 1.2334 | 0.9688 | 0.6326 | 1.182 | 1.17 | 1.132 | 1.1402 | 1.1046 | 1.082 | 
7 | O=P(O)(O)OC[C@H]1OC(O)(CO)[C@@H](O)[C@@H]1O (stereo partly drawn) [Fructose-6-Phosphate] | 1.008 | 1.026 | 1.013 | 1.111 | 1.041 | 0.9386 | 1.073 | 1.052 | 0.8397 | 
8 | Nc1ncnc2c1ncn2[C@@H]1O[C@H](COP(=O)(O)OP(=O)(O)OP(=O)(O)O)[C@@H](O)[C@H]1O [ATP] | 0.9749 | 0.855 | 0.8179 | 0.9538 | 0.8859 | 0.784 | 0.9549 | 0.8395 | 0.7365 | 
9 | O=P(O)(O)OC[C@H]1OC(O)[C@H](O)[C@@H](O)[C@@H]1O (stereo partly drawn) [Glucose-6-Phosphate] | 0.8219 | 0.7353 | 0.7494 | 0.9729 | 0.8323 | 0.7319 | 0.8489 | 0.791 | 0.6337 | 
10 | Nc1ccn([C@@H]2O[C@H](COP(=O)(O)O)[C@@H](O)[C@H]2O)c(=O)n1 [CMP] | 1.383 | 1.267 | 1.102 | 0.8705 | 0.5442 | 1.311 | 1.179 | 1.206 | 1.249 | 
11 | Cc1cn([C@H]2C[C@H](O)[C@@H](COP(=O)(O)O)O2)c(=O)[nH]c1=O [dTMP] | 1.094 | 1.051 | 1.314 | 1.082 | 1.005 | 1.669 | 0.8062 | 1.245 | 1.203 | 
12 | CC(O)C(=O)O (stereo not drawn) [Lactate] | 8.023 | 5.339 | 5.015 | 5.913 | 7.877 | 8.247 | 2.842 | 5.6661 | 4.424 | 
13 | CC(C)(COP(=O)(O)OP(=O)(O)OC[C@H]1O[C@@H](n2cnc3c(N)ncnc32)[C@H](O)[C@@H]1OP(=O)(O)O)[C@@H](O)C(=O)NCCC(=O)NCCS [CoA] | 0.7833 | 0.6851 | 0.6052 | 0.7277 | 0.6878 | 0.6949 | 0.705 | 0.6678 | 0.6155 | 
14 | CC(=O)N[C@H]1[C@@H](OP(=O)(O)OP(=O)(O)OC[C@H]2O[C@@H](n3ccc(=O)[nH]c3=O)[C@H](O)[C@@H]2O)O[C@H](CO)[C@@H](O)[C@@H]1O [UDP-N-acetyl-D-glucosamine] | 1.076 | 0.9078 | 0.813 | 0.9909 | 1.08 | 0.8625 | 1.118 | 1.138 | 0.9727 | 
15 | O=C(O)c1cc(=O)[nH]c(=O)[nH]1 [Orotate] | 0.5025 | 0.4692 | 0.3315 | 0.4622 | 0.4131 | 0.4313 | 0.3435 | 0.2448 | 0.2332 | 
16 | Nc1nc2c(ncn2[C@@H]2O[C@H](COP(=O)(O)OP(=O)(O)O)[C@@H](O)[C@H]2O)c(=O)[nH]1 [GDP] | 0.4319 | 0.3131 | 0.5082 | 0.6304 | 0.5095 | 0.5364 | 0.8846 | 0.5153 | 0.569 | 
17 | O=C(O)CCC(=O)O [Succinate] |  |  |  |  |  |  |  |  |  | Log2 Exp1_1hr: 0.7494; Log2 Exp1_3hr: -0.1278; Log2 Exp1_6hr: -0.06195; Log2 Exp2_1hr: 0.5818; Log2 Exp2_3hr: -0.0254; Log2 Exp2_6hr: 0.5995; Log2 Exp3_1hr: 0.1613; Log2 Exp3_3hr: -0.5854; Log2 Exp3_6hr: 0.007182; Ratio of metabolite abundance, Exp1_1hr: 1.681; Ratio of metabolite abundance, Exp1_3hr: 0.9152; Ratio of metabolite abundance, Exp1_6hr: 0.958; Ratio of metabolite abundance, Exp2_1hr: 1.497; Ratio of metabolite abundance, Exp2_3hr: 0.9825; Ratio of metabolite abundance, Exp2_6hr: 1.515; Ratio of metabolite abundance, Exp3_1hr: 1.118; Ratio of metabolite abundance, Exp3_3hr: 0.6665; Ratio of metabolite abundance, Exp3_6hr: 1.005
18 | Nc1nc2c(ncn2[C@H]2C[C@H](O)[C@@H](COP(=O)(O)O)O2)c(=O)[nH]1 [dGMP] | 1.008 | 1.65 | 0.6713 | 1.04 | 0.9344 | 0.8266 | 1.138 | 0.9165 | 0.8614 | 
19 | O=CCCC(=O)O [Succinate semialdehyde] | 0.6229 | 0.6245 | 0.614 | 0.9462 | 0.5836 | 0.7757 | 0.7696 | 0.6244 | 0.8444 | 
